Experimental data taken from patent US8165823B2, “Pamps, pathogen associated molecular patterns” (Novartis AG, priority 2005, dated 2012).

Assays:
cells in vitro = conditions: cited from earlier work
[1] = system: human monocytic cell line THP-1; assay: Cytokine production by THP-1 cells after peptide stimulation; format: cell-based; conditions: for Cytokine production IL-1β / Cytokine production IL-8 / Cytokine production TNF-α: culture supernatant after 18 hours with peptide
Procedure: (§1) For the assay, the human cells used were cultured at 1 million cells/ml in 96-well plates with the peptides in complete RPMI medium with 5% FBS. After culture for 18 hours at 37° C. and 5% CO2, the culture supernatants were measured for the cytokines generated by the cells with an Upstate multiplex cytokine kit.

[2] = system: primary human peripheral blood mononuclear cells (hPBMC); assay: Cytokine production by primary hPBMC after peptide stimulation; format: cell-based
Procedure: The possible combinations of sequences included PDCGLR, PDCGLK, PDCGMR, and PDCGMK. […] Therefore, the specific peptide sequence PDCGLR, which was identified as a bacterial signature found commonly in bacterial proteins but not in Drosophila, is recognised by the human immune system as a PAMP.
as §1

[3] = hPBMC #1643, culture supernatant after 18 hours with peptide

Substance | Induction of cytokine production from cells in vitro (cells in vitro) | Cytokine production IL-1β [1] [pg/mL] | Cytokine production IL-8 [1] [pg/mL] | Cytokine production TNF-α [1] [pg/mL] | Adjuvant activity, as measured by the specific production of cytokines (IL1-β, IL-8 and TNFα) [1] | Cytokine production (IL-6 and TNFα) ([2]; hPBMC) | Cytokine production IL-6 [2, 3] [pg/mL] | Cytokine production TNF-α [2, 3] [pg/mL]
ALTTE [5-mer peptide from a bacterial fimbriae protein] | shown to induce cytokine production from cells in vitro | – | – | – | – | – | – | –
PDCGMR | – | 1.61 | 25.71 | <1 | – | – | – | –
PDCGLK | – | 1.33 | 24.29 | <1 | – | – | – | –
PDCGLR | – | 11.32 | 171.11 | 4.42 | adjuvant activity was observed | cytokine production (IL-6 and TNFα) was also demonstrated | 31.42 | 3.6
PDCGMK | – | 1.59 | 19.28 | <1 | – | – | – | –
